Assays:
[1] = system: maximum electroshock seizure (MES) model; experiment: Maximum electroshock seizure (MES) model test; format: in vivo, mice
Summary of the method: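 Tonic hind-limb extension was elicited by corneal electroshock (60 Hz, 25 mA, 0.2 s) 1 h after oral dosing. Test compounds were given at 50 or 100 mg/kg to groups of 3 male Slc: ddY mice (20-30 g), vehicle controls receiving 0.5% tragacanth or 0.5% methylcellulose solution.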

[2] = system: Slc: C57BL/6J male mice; experiment: Evaluation of antimanic effect (methamphetamine and chlordiazepoxide induced hyperactivity, locomotor distance); format: in vivo; conditions: for The rate of the shortened locomotor-distance (% control): methamphetamine 4 mg/kg and chlordiazepoxide 10 mg/kg i.p.
Text: (§1) Meanwhile, there are no reports about animal models which provide a good clinical prediction to evaluate the improving efficacy for bipolar disorder. However, bipolar disorder comprises “manic state” and “depressive state”, and some animals are reported to be useful as a model to evaluate the improvement of each pathological condition individually. In general, an index of manic state is excessive hyperactivity induced by administering methamphetamine and chlordiazepoxide in combination, and that of depressive state is immobility induced by forced swimming.
Test 7: Evaluation of Antimanic Effect
Test 7 evaluates the antimanic effect of medicaments. The evaluation system is a test system whose utility has been already confirmed with a known antimanic agent which is clinically used as a mood-stabilizing drug, not as a drug for treating schizophrenia (Arban et al., Behay. Brain Res., 158:123-132, 2005, Foreman et al., Pharmacol. Biochem. Behay., 89: 523-534, 2008). Test compounds were orally administered to Slc: C57BL/6J male mice (8 mice in each group, body weight 20-26 g). After 30 minutes of administration, methamphetamine (4 mg/kg) and chlordiazepoxide (10 mg/kg) were administered intraperitoneally. Then, the mice were allowed to move freely in an acrylic cage (W 360 mm×D 230 mm×H 310 mm) for 90 minutes. The locomotor distances of the mice were measured with Ethovision software (Ver. 3.1). Among the 90 minutes, the result of the latter 60 minutes with the exception of the first 30 minute's result for adaptation to the new environment was used as data of the locomotor distance. The antimanic effect was evaluated by calculating how long locomotor distance was shortened against the control. To the control mice, 0.5% methylcellulose solution was administered.

[3] = system: Crl: CD (SD) male rats; experiment: Evaluation of antidepressant effect (forced swimming, duration of immobility); format: in vivo
Text: as §1
Test 6: Evaluation of Antidepressant Effect
Test 6 is a typical test to evaluate the antidepressant activity of medicaments (Porsolt et al., Nature, 266: 730-732, 1977, Porsolt et al., Eur. J. Pharmacol., 47: 379-391, 1978). Crl: CD (SD) male rats (12 rats in each group, body weight 200-250 g) were forced to swim for 15 minutes in a water pool with 200 mm diameter. In the pool, water was filled up to a depth of 205 mm from the bottom of the pool, and thus the rats could not touch the bottom of the pool with their hind limbs. Fifteen minutes after the completion of the forced swimming, test compounds were orally administered to the rats. On the next day, the test compounds were administered to the rats at the same dose as the previous day, and the rats were put in the pool for 5 minutes at the same clock time as the previous day. […] The antidepressant effect was evaluated by calculating how long the duration of immobility was shortened against the control. To the control, 0.5% methylcellulose solution was administered.

[4] = system: 6 Hz psychomotor seizure model; experiment: 6 Hz psychomotor seizure model; format: in vivo, mice; conditions: mice, oral
Summary of the method: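 Anticonvulsant activity was tested in the 6 Hz psychomotor seizure model in mice, a model reflecting seizures resistant to current antiepileptic drugs. 30 minutes or an hour after dosing, corneal electrical stimulation (6 Hz, 32 mA, 3 seconds) was applied to provoke forelimb myoclonus, Straub tail and immobility. Control mice received 0.5% tragacanth solution, 0.5% methylcellulose solution or olive oil.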

[5] = system: subcutaneously pentetrazol-injected model (scPTZ); experiment: Subcutaneously pentetrazol-injected model (scPTZ) test; format: in vivo, mice; conditions: pentetrazol 85 mg/kg s.c. after 1 hour
Summary of the method: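 Pentetrazol (85 mg/kg, s.c.) was injected one hour after oral test compound at 50 or 100 mg/kg in groups of three male Slc:ddY mice weighing 20-30 g; vehicle controls got 0.5% tragacanth or 0.5% methylcellulose.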

NC(=O)Cc1ccccc1-c1ccccc1Cl [Example 16, 2-(2′-chlorobiphenyl-2-yl)acetamide]
responders at 50 mg/kg ([1]; Mus musculus, po, 1 h, 50 mg/kg oral, Slc: ddY male mice, 3 per group, electrical stimulation 1 hour after administration, inhibition of hind limb extension, read-out: MES (positive number/tested number) (converted)): 100% | responders at 100 mg/kg ([1]; Mus musculus, po, 1 h, 100 mg/kg oral, Slc: ddY male mice, 3 per group, electrical stimulation 1 hour after administration, inhibition of hind limb extension, read-out: MES (positive number/tested number) (converted)): 100% | anticonvulsant action in maximum electroshock seizure (MES) model test ([1]; mice, oral 50 or 100 mg/kg, 1 hour after administration): anticonvulsant action was observed | The rate of the shortened locomotor-distance (% control) ([2]; 30 mg/kg oral): 45.7 % control | The rate of the shortened locomotor-distance (% control) ([2]; 60 mg/kg oral): 69.1 % control | The rate of the shortened locomotor-distance (% control) ([2]; 100 mg/kg oral): 84.9 % control | The rate of the shortened duration of immobility (% control) ([3]; 10 mg/kg oral): 19.9 % control | The rate of the shortened duration of immobility (% control) ([3]; 30 mg/kg oral): 21.9 % control | ED50 ([4]; Mus musculus, 6 Hz psychomotor seizure model, read-out: ED50): 38.1 mg/kg | 6 Hz (Positive number/tested number) ([4]; dose 50 mg, 30 minutes or 1 hour after administration): 8/10/50 | responders at 50 mg/kg ([5]; Mus musculus, po, 1 h, 50 mg/kg oral, Slc: ddY male mice, 3 per group, observed 30 minutes for clonic convulsion, read-out: scPTZ (positive number/tested number) (converted)): 66.7% | responders at 100 mg/kg ([5]; Mus musculus, po, 1 h, 100 mg/kg oral, Slc: ddY male mice, 3 per group, observed 30 minutes for clonic convulsion, read-out: scPTZ (positive number/tested number) (converted)): 100% | anticonvulsant action in subcutaneously pentetrazol-injected model (scPTZ) test ([5]; mice, oral 50 or 100 mg/kg): anticonvulsant action was observed

Nc1nnc(-c2cccc(Cl)c2Cl)c(N)n1 [Lamotrigine, reference compound]
locomotor distance ([2]; same conditions): dose-dependently shortened | duration of immobility ([3]; same conditions): dose-dependently shortened

Reference: patent publication US20120142771A1, “BIPHENYLACETAMIDE DERIVATIVE” (Dainippon Sumitomo Pharma Co., Ltd., priority 2008, published 2012)
